Data reported in ChEMBL document CHEMBL1126102, “2-(N'-aralkylidenehydrazino)adenosines: potent and selective coronary vasodilators” (J Med Chem, 1992).

Columns and labels:
Adenosine receptor A1 = target: T1, Adenosine receptor A1 (Cavia porcellus, UniProt P47745); test: Tested for adenosine A1 receptor agonistic activity by determining concentration needed to prolong the stimulus-QRS interval by 50% of the maximum response; assay type: functional
T1 sequence (P47745 whole entry): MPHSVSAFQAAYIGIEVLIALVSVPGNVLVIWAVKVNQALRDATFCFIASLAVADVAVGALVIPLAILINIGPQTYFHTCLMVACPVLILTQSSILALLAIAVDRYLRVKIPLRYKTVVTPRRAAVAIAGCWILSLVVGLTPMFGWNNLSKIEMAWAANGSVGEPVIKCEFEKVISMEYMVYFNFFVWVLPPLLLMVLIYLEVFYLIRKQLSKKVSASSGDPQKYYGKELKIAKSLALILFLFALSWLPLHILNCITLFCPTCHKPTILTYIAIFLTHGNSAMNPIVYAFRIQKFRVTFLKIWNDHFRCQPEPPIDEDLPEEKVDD

Adenosine A2 receptor = test: Tested for adenosine A2 receptor agonistic activity by determining coronary vasodilation; assay type: functional, Cavia porcellus

EC50 (Adenosine receptor A1)	-Log EC50 (Adenosine A2 receptor)	Compound
26.3 µM	7.96	Nc1nc(N/N=C/c2ccncc2)nc2c1ncn2C1O[C@H](CO)[C@@H](O)[C@H]1O (stereo not given in full)
83.2 µM	8.64	Nc1nc(N/N=C/c2ccccc2)nc2c1ncn2C1O[C@H](CO)[C@@H](O)[C@H]1O (stereo not given in full)
19.5 µM	7.91	COc1cccc(/C=N/Nc2nc(N)c3ncn(C4O[C@H](CO)[C@@H](O)[C@H]4O)c3n2)c1 (stereo not given in full)
43.7 µM	7.92	Cc1ccccc1/C=N/Nc1nc(N)c2ncn(C3O[C@H](CO)[C@@H](O)[C@H]3O)c2n1 (stereo not given in full)
60.3 µM	7.81	Nc1nc(N/N=C/c2ccsc2)nc2c1ncn2C1O[C@H](CO)[C@@H](O)[C@H]1O (stereo not given in full)
9.12 µM	8.47	Nc1nc(N/N=C/c2cccc(F)c2)nc2c1ncn2C1O[C@H](CO)[C@@H](O)[C@H]1O (stereo not given in full)
17 µM	8.36	Cc1cccc(/C=N/Nc2nc(N)c3ncn(C4O[C@H](CO)[C@@H](O)[C@H]4O)c3n2)c1 (stereo not given in full)
41.7 µM	7.86	Nc1nc(N/N=C/c2cccs2)nc2c1ncn2C1O[C@H](CO)[C@@H](O)[C@H]1O (stereo not given in full)
12.6 µM	8.61	Nc1nc(N/N=C/c2ccc(F)cc2)nc2c1ncn2C1O[C@H](CO)[C@@H](O)[C@H]1O (stereo not given in full)
41.7 µM	8.24	Nc1nc(N/N=C/c2ccccn2)nc2c1ncn2C1O[C@H](CO)[C@@H](O)[C@H]1O (stereo not given in full)
41.7 µM	8.43	Nc1nc(N/N=C/c2ccccc2F)nc2c1ncn2C1O[C@H](CO)[C@@H](O)[C@H]1O (stereo not given in full)
57.5 µM	8.28	Nc1nc(N/N=C/c2cc(Br)cs2)nc2c1ncn2C1O[C@H](CO)[C@@H](O)[C@H]1O (stereo not given in full)
32.4 µM	7.83	Nc1nc(N/N=C/c2cccnc2)nc2c1ncn2C1O[C@H](CO)[C@@H](O)[C@H]1O (stereo not given in full)
49 µM	8.34	Nc1nc(N/N=C/c2cccc(Cl)c2)nc2c1ncn2C1O[C@H](CO)[C@@H](O)[C@H]1O (stereo not given in full)
49 µM	8.12	Nc1nc(N/N=C/c2ccccc2Cl)nc2c1ncn2C1O[C@H](CO)[C@@H](O)[C@H]1O (stereo not given in full)

The next lines start with the molecule.

Compound	EC50 (Adenosine receptor A1)	-Log EC50 (Adenosine A2 receptor)
C/C(=N\Nc1nc(N)c2ncn(C3O[C@H](CO)[C@@H](O)[C@H]3O)c2n1)c1ccc(F)cc1 (stereo not given in full)	4.17 µM	8.49
Cc1ccc(/C=N/Nc2nc(N)c3ncn(C4O[C@H](CO)[C@@H](O)[C@H]4O)c3n2)cc1 (stereo not given in full)	39.8 µM	
Nc1nc(NCCc2ccc(CCC(=O)O)cc2)nc2c1ncn2C1O[C@H](CO)[C@@H](O)[C@H]1O (stereo not given in full)	112 µM	7.95
COc1ccccc1/C=N/Nc1nc(N)c2ncn(C3O[C@H](CO)[C@@H](O)[C@H]3O)c2n1 (stereo not given in full)	12.3 µM	6.86
C/C(=N\Nc1nc(N)c2ncn(C3O[C@H](CO)[C@@H](O)[C@H]3O)c2n1)c1cccs1 (stereo not given in full)	8.91 µM	7.55
Nc1nc(N/N=C/c2cccc3ccccc23)nc2c1ncn2C1O[C@H](CO)[C@@H](O)[C@H]1O (stereo not given in full)	0.832 µM	8.02
Nc1nc(N/N=C/Cc2ccccc2)nc2c1ncn2C1O[C@H](CO)[C@@H](O)[C@H]1O (stereo not given in full)	83.2 µM	8.04
Nc1nc(N/N=C/c2ccc(CCC(=O)O)cc2)nc2c1ncn2C1O[C@H](CO)[C@@H](O)[C@H]1O (stereo not given in full)	30.9 µM	8.18
CC(C)(C)OC(=O)CCc1ccc(/C=N/Nc2nc(N)c3ncn(C4O[C@H](CO)[C@@H](O)[C@H]4O)c3n2)cc1 (stereo not given in full)	12 µM	8.52
CC(C)(C)OC(=O)CCc1ccc(CCNc2nc(N)c3ncn(C4O[C@H](CO)[C@@H](O)[C@H]4O)c3n2)cc1 (stereo not given in full)	19.1 µM	8.28
C/C(=N\Nc1nc(N)c2ncn(C3O[C@H](CO)[C@@H](O)[C@H]3O)c2n1)c1ccccc1 (stereo not given in full)	3.02 µM	7.9
NNc1nc(N)c2ncn(C3O[C@H](CO)[C@@H](O)[C@H]3O)c2n1 (stereo not given in full)		7.1
Nc1nc(N/N=C/CCc2ccccc2)nc2c1ncn2C1O[C@H](CO)[C@@H](O)[C@H]1O (stereo not given in full)	66.1 µM	
Nc1nc(N/N=C/c2ccc3ccccc3c2)nc2c1ncn2C1O[C@H](CO)[C@@H](O)[C@H]1O (stereo not given in full)	2.63 µM	8.38
